According to patent US10202371B2, “Oxazolidin-2-one-pyrimidine derivatives and the use thereof as phosphatidylinositol-3-kinase inhibitors” (Novartis AG, priority 2012, dated 2019):
Like-named read-outs stand apart in the source and are kept apart here.

System: SCL-1 cells
Assay: BrdU cell proliferation assay SCL-1
Format: cell-based
Details: Homo sapiens, BrdU incorporation
Excerpt: The SCL-1 and SCC12B2 are human cutaneous squamous cell carcinoma (SCC) cell lines derived from naturally occurring, poorly differentiated SCCs. The SCL-1 cell line was originally established in the lab of N. Fusenig at the Cancer Research Center in Heidelberg, and its growth characteristics in vitro in comparison to normal keratinocytes were described previously (Neely et al 1991). The SCC12B2 cell line was established as described previously (Rheinwald & Beckett 1981) from the facial skin of a transplant patient who received immunosuppressive therapy for 7 years. The human SCC cell line Detroit562 was obtained from American Tissue Culture Collection (ATCC). Detroit562 is referred to as Head & Neck squamous cell carcinomas (HNSCC) and was derived from a pharyngeal SCC tumor. […]
Cells of SCC or keratinocyte lines (Detroit562, SCC12B2, SCL1, HaCaT) were used for the proliferation assays when they had reached about 80% to 90% confluency. Cells were then harvested after trypsin-mediated dislodgement from culture flasks, washed in culture medium containing 10% FCS, counted in a hemocytometer and diluted complete culture medium with 5% FCS to obtain a cell density of 5×10^4 cells/ml. […] The cell proliferation was determined on the basis of incorporation of bromodesoxy-uridin (BrdU) into cellular DNA using the chemiluminescent BrdU Cell Proliferation ELISA (Roche article #11 669 915 001). […]

C[C@H]1[C@H](c2nccs2)OC(=O)N1c1cc(-c2cnc(N)nc2C(F)(F)F)nc(N2CCOCC2)n1 [Example 1, (4S,5R)-3-(2′-Amino-2-morpholin-4-yl-4′-trifluoromethyl-[4,5′]bipyrimidinyl-6-yl)-4-methyl-5-thiazol-2-yl-oxazolidin-2-one]
IC50 (measurement #1, read-out: anti-proliferative IC50 SCL-1 measurement #1): 0.351 µM
IC50 (measurement #2, read-out: anti-proliferative IC50 SCL-1 measurement #2): 0.268 µM
